Patent US20060045864A1, “Preventing marine biofouling by inhibiting adhesive release from barnacles” (priority 2004, published 2006)

Columns and labels:
barnacle cypris larvae = assay: settling and metamorphosis of barnacle cypris larvae in Petri dish with filtered seawater; assay type: in vivo, Balanus improvisus; conditions: 20 cypris larvae in 5 ml filtered seawater; for inhibition of settling rate of barnacle cypris larvae, compared between substances and control: 1 μM and 10 μM, accumulative settling frequency over 10 days (FIG. 1)
Protocol: (§1) All the below described experiments are on the species Balanus improvisus.
In a Petri dish containing 5 ml of filtered seawater, 20 cypris larvae and a defined concentration of the different pharmacological agents. […] 20 barnacle cypris larvae were added into a Petri dish containing 5 ml filtered seawater and different concentration of haloperidole and SCH 23990. […] Instead 1 μM of SCH 23390 inhibits the settling rate almost completely. Typically, 0.01-1.0% of the dopamine antagonist effects the desired result, typically dissolved in ethanol and mixed with commercially available paints, such as VC 17 New Technology (solid paint) International Coatings (Akzo Nobel bv, Arnhem, NL), SPF (Self polishing, SPC) (Loutrec AB, Lidingo, Sweden), TF (combined solid/ablative) (Loutrec AB), Fabi Eco (ablative paint) International Coatings (Akzo Nobel bv).

[1] = tested on: release of barnacle adhesive; assay: release of barnacle adhesive; set-up: species or system Balanus improvisus; conditions: in vivo
Source text: as §1
The release of the adhesive is governed by a G-protein coupled receptor and it is possible to stimulate release of the adhesive glands by adding dopamine. According to the same principle, it is possible to block the release of the adhesive proteins by using a dopamine antagonist that block the action of dopamine. […] The invention herein includes use of SCH23390, and salts and derivatives thereof, as well as other D1 or D5 receptor antagonists such as […], SCH 39166, SCH 233388 and the like or antagonists against other receptors with the same function.

| SMILES | inhibition of settling rate of barnacle cypris larvae, compared between substances and control (barnacle cypris larvae) | effect on settlement rate of barnacle cypris larvae (barnacle cypris larvae; 1 μM, accumulative settling over 10 days (FIG. 1)) | inhibition of the release of barnacle adhesive [1] |
| --- | --- | --- | --- |
| CN1CCc2cc(Cl)c(O)cc2[C@@H](c2ccccc2)C1 [SCH 23390, (R)-(+)-7-Chloro-8-hydroxy-3-methyl-1-phenyl-2,3,4,5-tetrahydro-1H-3-benzazepine] | effectively inhibits the settling rate | almost complete reducing effect | can inhibit the release of barnacle adhesive |
| O=C(CCCN1CCC(O)(c2ccc(Cl)cc2)CC1)c1ccc(F)cc1 [haloperidol] | less effective | – | – |
